Data: paper PMC12569658, “An Orally Administered Misuse Deterrent Opioid Prodrug for Treatment of Acute Pain” (JACS Au, 2025)

Key:
[1] = test system: chymotrypsin and trypsin; test: Michaelis-Menten kinetics of pNP release in the presence of both chymotrypsin and trypsin; assay type: biochemical; conditions: for Km / VMax / kCat/KM (substrate specificity): chymotrypsin and trypsin 0.02 mM each, substrate 0.1-2.0 mM, 35 mM HEPES pH 7.5, 37 °C, absorbance 405 nm, average of n = 3
Excerpt: In order to ensure the prodrug would be cleaved effectively once it was exposed to chymotrypsin and trypsin in concentrations found in the […], we elected to optimize the peptide sequence further, particularly on the ε-amine of the lysine, to enhance the substrate efficiency (Figure B). This would help to ensure that oxycodone is released in the gastrointestinal tract. […] Previous studies have shown that chymotrypsin binding can be enhanced through additional nonbulky amino acid groups following the aromatic residue. ,− Accordingly, substrates 9 and 10, with alanine residues coupled to phenylalanine, were prepared, and their kinetics were examined. […] Coupling a third alanine to the tyrosine residue (12) increased the substrate specificity by around 5-fold compared to 11. Since coupling of alanine residues to the α-amine of 6–8 increased the percentage of pNP release (Figure A), 13 with a single alanine on the N-terminus was prepared. Compared to substrate 11 with no N-terminal alanine, there was a minimal effect on the K M, but the V Max was reduced by half, leading to a lower k Cat/K M. Since 12 had the highest k Cat/K M and the fastest V Max, we proceeded to use this peptide scaffold for further experiments. […]
(§1) General Procedure – Michaelis-Menten Kinetics […]
(§2) substrate concentration of 2.0, 1.5, 1.0, 0.5, 0.24, and 0.1 mM, maintaining a constant concentration of DMSO across all conditions. These solutions were then combined with chymotrypsin and trypsin to afford a final concentration of 0.02 mM for each enzyme. Immediately upon addition of the proteases, the 96-well plate was inserted into the plate reader and the absorbance at 405 nm was monitored over the course of 4 ho urs with time points taken every 30 seconds. The plate was incubated in the plate reader at 37 °C. All conditions were carried out in triplicate and reported as the average between the three replicates. Michaelis -Menten enzyme kinetic analysis was carried out using GraphPad Prism 8.4.3. Substrate concentrations were adjusted as needed to obtain relevant Michaelis -Menten statistics. Concentrations of substrate are shown in their respective activity plots below.

[2] = test system: chymotrypsin and trypsin; test: In vitro simulated digestion (pNP release) assay with trypsin, chymotrypsin or both enzymes; assay type: biochemical; conditions: substrate 1.5 mM, 35 mM HEPES pH 7.5, 37 °C, n = 3
Experimental: We hypothesized that by protecting the phenol with a tert-butyl ether, chymotrypsin would not recognize the tyrosine derivative prior to passage through the acidic conditions in the stomach where the tert-butyl ether would be removed. This additional security measure removes the ability to pretreat the prodrug with store-bought digestive enzyme supplements to release the opioid.
General Procedure – Release Kinetics
(§3) The peptide was dissolved in DMSO and diluted using 35 mM HEPES buffer (pH 7.5) to a final substrate concentration of 1.5 mM, maintaining a constant concentration of DMSO across all conditions. These solutions were then combined with either chymotrypsin, trypsin, or both enzymes to afford a final concentration of 0.02 mM for each enzyme. Immediately upon addition of the proteases, the 96-well plate was inserted into the plate reader and the absorbance at 405 nm was monitored over the course of 4 hours with time points taken every 30 seconds. The plate was incubated in the plate reader at 37 °C.
as §1, §2

[3] = test system: C57BL/6J mice; conditions: IP injection of oxycodone; ref previous reports (reference numbers not printed); cited from earlier work
Excerpt: To confirm that this analgesic effect was due to enzymatic degradation of the prodrug in the digestive system, the antinociceptive effects of prodrug 20 were examined following systemic intraperitoneal (IP) injection.

[4] = target: T1, chymotrypsin (Bos taurus, UniProt P00766); test: pNP release assay in the presence of chymotrypsin only; assay type: biochemical; conditions: chymotrypsin only 0.02 mM, substrate 1.5 mM, 35 mM HEPES pH 7.5, 37 °C, absorbance 405 nm, over 4 h
T1 construct: purchased
Excerpt: Using the branched lysine peptide sequences modified from our previous work, we began to explore the sequence effects on the efficiency and release rate of a model reporter molecule, p-nitrophenol (pNP). Peptides 6–8 were initially prepared to determine whether the peptide backbone length had any effect on the release of pNP in the presence of chymotrypsin alone (Figure A; see Supporting Information (SI) for synthetic procedures). Chymotrypsin promiscuity (i.e., cleavage of both sites) could lead to less misuse deterrence as only one enzyme could promote the release of the opioid. […] However, substrate 8 reached greater than 90% pNP release within 3 h (Figures A and S15). […]
as §3, with “These solutions were then combined with either chymotrypsin, trypsin, or both enzymes to afford a final concentration of 0.02 mM for each enzyme.” left out, “°C. […]” for “°C.”
substrate concentration of 2.0, 1.5, 1.0, 0.5, 0.24, and 0.1 mM, maintaining a constant concentration of DMSO across all conditions. […] The plate was incubated in the plate reader at 37 °C. […]

[5] = test system: chymotrypsin and trypsin; test: Michaelis-Menten competitive inhibition release assay of 12 with peptide byproduct 19; assay type: biochemical; conditions: 19 at 1.6, 0.8, 0.4 or 0.2 mM; 12 at 0.1-2.0 mM; chymotrypsin and trypsin 0.02 mM each; 35 mM HEPES pH 7.5; n = 3
Excerpt: Prior to moving forward with analgesia studies in vivo, it was important to ensure that the AAAY (19) peptide byproduct from chymotrypsin cleavage was not competitively inhibiting the pNP release. This could be an issue in vivo, as the PEPT1 transepithelial transporter in the digestive tract has a very weak binding affinity for tetrapeptides. A lack of transport for 19 could lead to the accumulation and generation of a competitive inhibitor for chymotrypsin, thus reducing the overall amount of opioid released. To examine this hypothesis, Michaelis–Menten competitive inhibition enzyme kinetics were performed with chymotrypsin and trypsin for 12 in the presence of peptide 19. […] These observations enhanced our confidence in using the 12 prodrug scaffold for in vivo analgesia studies.
Competitive Inhibition Release Assay
12 was dissolved in DMSO and diluted using 35 mM HEPES buffer (pH 7.5) to a final substrate concentration of 2.0, 1.5, 1.0, 0.5, 0.24, and 0.1 mM, maintaining a constant concentration of DMSO across all conditions. 19 was added to yield a final concentration of either 1.6, 0.8, 0.4, or 0.2 mM. […] Immediately upon addition of the proteases, the 96 - well plate was inserted into the plate reader and the absorbance at 405 nm was monitored over the course of 4 hours. […]

[6] = test system: C57BL/6J mice; test: Hot plate latency after intraperitoneal injection; assay type: in vivo, mouse; conditions: 30 mg/kg of oxycodone in prodrug, 55 °C hot plate, n = 6, ns vs water

Row | Compound | Km [1] | VMax [1] | also measured
1 | Ac-Lys[Phe-Ala-Ala]-(2-(pNP-thionocarbamate)methyl)ethylamino trifluoroacetate [compound 10] | 1970 µM | 0.225 µM/s | kCat/KM (substrate specificity) [1]: 5.73 × 10^–6 μM^-1s^-1
2 | Ac-Lys[Tyr-Ala-Ala-Ala]-(2-(pNP-thionocarbamate)methyl)ethylamino trifluoroacetate [compound 12] | 2350 µM | 0.749 µM/s | increase of substrate specificity (kCat/KM) compared to 11 ([1]; chymotrypsin and trypsin, relative to 11): around 5 fold; pNP release at which the simulated digestion assay stagnated ([2]; both chymotrypsin and trypsin 0.02 mM each, absorbance 405 nm, plateau): ~30%; enzyme requirement for pNP release ([2]; trypsin, chymotrypsin, or both enzymes, 0.02 mM each): only observed in the presence of both proteolytic enzymes
3 | COc1ccc2c3c1O[C@H]1C(=O)CC[C@@]4(O)[C@@H](C2)N(C)CC[C@]314 [oxycodone] |  |  | analgesic effect after IP injection [3]: there is an analgesic effect
4 | Ac-Ala-Lys[Tyr-Ala-Ala]-(2-(pNP-thionocarbamate)methyl)ethylamino trifluoroacetate [compound 13] | 4160 µM | 0.119 µM/s | 
5 | Ala-Lys[(Ac)Phe]-(2-(pNP-thionocarbamate)methyl)ethylamino trifluoroacetate [compound 7] | 941 µM | 0.019 µM/s | pNP release over the course of 4 h, chymotrypsin alone [4]: less than 15%; kCat/KM (substrate specificity) [1]: 9.97 × 10^–7 μM^-1s^-1
6 | Ala-Ala-Ala-Tyr trifluoroacetate [compound 19] |  |  | competitive inhibition of pNP release from 12 [5]: negligibly affected
7 | Ac-Lys[Tyr(tBu)-Ala-Ala-Ala]-(2-(pNP-thionocarbamate)methyl)ethylamino trifluoroacetate [compound 14] |  |  | pNP release over 150 min ([2]; both chymotrypsin and trypsin 0.02 mM each, absorbance 405 nm, 150 min, no acidic pretreatment): ~5%
8 | Ac-Lys[Phe-Ala]-(2-(pNP-thionocarbamate)methyl)ethylamino trifluoroacetate [compound 9] | 1420 µM | 0.021 µM/s | 
9 | Ac-Lys[Tyr-Ala-Ala]-(2-(pNP-thionocarbamate)methyl)ethylamino trifluoroacetate [compound 11] | 4000 µM | 0.276 µM/s | 
10 | Ac-Lys[Tyr-Ala-Ala-Ala]-(2-(oxycodone-thionocarbamate)methyl)ethylamino ditrifluoroacetate [compound 20] |  |  | withdrawal threshold (hot plate) latency after IP injection [6]: did not alleviate acute pain
